Test results: patent publication US5594012A, “Amino acid derivatives and anti-active oxygen agents” (Ajinomoto Co., Inc., priority 1992, dated 1997)

How the values were obtained:
[1] = tested on: lipid peroxidation in murine brain homogenate; test: Inhibitory effects on metal ion-induced lipid peroxidation (murine brain homogenate); type: biochemical, murine (C57 black mouse); details: 1 mM test compound; 100 μM ammonium iron (II) sulphate; 37° C., 30 minutes; pH 7.2 to 7.8
Procedure: Test for Inhibitory Effects on Metal Ion-induced Lipid Peroxidation
(§1) The test was carried out according to the method described in Method in Enzymol., Vol. 52, page 302, 1978. A C57 black mouse was killed by cervical dislocation, and the whole brain extracted from the dissected head was washed with 20 mM phosphate buffer (hereinafter referred to as "PBS-2"). Then, the brain was added with PBS-2 in an amount of 19 times its wet weight, and the mixture was disrupted and homogenized with a homogenizer "Polytron" (manufactured by Kinematica). The thus prepared 5% solution of the murine brain homogenate in PBS-2 was diluted 1:5 with fresh PBS-2. To 800 μl of the resulting 1% solution of the murine brain homogenate in PBS-2 (protein content: 0.8 to 1.0 mg/ml) were successively added 100 μl of a PBS-2 solution of each of the test compounds shown in Table 7 below and 100 μl of an aqueous solution of ammonium iron (II) sulphate. The final concentration of the test compounds and ammonium iron (II) sulphate were adjusted to be 1 mM and 100 μM, respectively. If test compounds were not soluble in PBS-2 alone, an aqueous sodium hydroxide solution or DMSO was added. The pH of the solution was adjusted to 7.2 to 7.8.
The solution after heated at 37° C. for 30 minutes was added with 2.0 ml of an aqueous solution of thiobarbituric acid/trichloroacetic acid/hydrochloric acid, and the mixture was heated in a boiling water bath for 15 minutes. After ice-cooling, the solution was extracted with 1.0 ml of 1-butanol to prepare a sample for determining the peroxide lipid in the same way as described in Test Example 1.
(§2) [formula] A1 : Absorbance when a test compound was added. A2 : Absorbance when a test compound was not added.
A3 : Absorbance when a test compound was not added and heating at 37° C. for 30 minutes was not carried out.

UV absorptive activities = type: physicochemical; details: 100 μM in ethanol (water or DMSO added if not soluble)
Procedure: Test for UV Absorptive Activities
A solution of each of the test compounds shown in Table 10 below in ethanol was prepared for the final concentration to be 100 μM. If test compounds were not soluble in ethanol alone, water or DMSO was added.
The absorption spectrum of each sample was determined using a spectrophotometer "Model 320" (manufactured by Hitachi).

[2] = tested on: lipid peroxidation in homogenate of murine swiss 3T3 cells; test: Inhibitory effects on UV-induced lipid peroxidation (homogenate of murine swiss 3T3 cells); type: biochemical; details: 1 mM test compound; UVB 0.4 mW/cm^2, 90 min; pH 7.2 to 7.8; TBA, 535 nm
Procedure: Test for Inhibitory Effects on UV-induced Lipid Peroxidation
The test was carried out on the basis of the methods described in Biochim. Biophys. […] Namely, 12 μl of an aqueous sodium hydroxide solution of each of the test compounds shown in Table 5 below was added to 1.2 ml of a homogenate of murine swiss 3T3 cells (i.e. a kind of murine skin cells) prepared by a conventional method in 20 mM phosphate buffer (protein content: 1.5 to 1.8 mg/ml). The final concentration of the test compounds was adjusted to be 1 mM and the pH of the solution was adjusted to 7.2 to 7.8. If test compounds were not soluble in an aqueous sodium hydroxide solution, they were dissolved in N,N-dimethyl sulfoxide (DMSO).
This solution (1.1 ml) was irradiated with UV rays (0.4 mW/cm^2, 90 min.) using a UVB lamp "EB-280C/J" (manufactured by Spectronics). To an aliquot (1.0 ml) of this solution were successively added 0.2 ml of an aqueous solution of sodium dodecyl sulfate and 1.0 ml of an aqueous solution of thiobarbituric acid/trichloroacetic acid/hydrochloric acid, and the mixed solution was heated in a boiling water bath for 15 minutes. After ice-cooling, the solution was extracted with 1.0 ml of 1-butanol to prepare a sample for determining peroxide lipid as absorbance at a wavelength of 535 nm using a spectrophotometer "Model 320" (manufactured by Hitachi).
as §2
A3 : Absorbance when a test compound was not added and UV rays were not irradiated.

hydroxyl radical [3] = test: Inhibitory effects on hydroxyl radical formation (1) (xanthine/xanthine oxidase, deoxyribose); type: biochemical; details: 360 μM test compound; 36 μM ammonium iron (III) sulphate; xanthine oxidase 0.7 unit/ml; 37° C., 15 minutes; pH 7.4 to 7.8
Procedure: Test for Inhibitory Effects on Hydroxyl Radical Formation (1)
The test was carried out in accordance with the method described in FEBS Letters, Vol. 128, page 347, 1981. Namely, to 1.1 ml of a solution of 54 mM sodium chloride in 9 mM phosphate buffer (hereinafter referred to as "PBS-I") were successively added 140 μl of a solution of each of the test compounds shown in Table 6 below in PBS-1, […] of a 1 mM solution of ammonium iron (III) sulphate in hydrochloric acid, 140 μl of a solution of xanthine (manufactured by Tokyo Kasei Co.) in PBS-1, 14 μl a solution of deoxyribose (Sigma) in PBS-1 and xanthine oxidase (Sigma). The final concentrations of the test compounds, ammonium iron (III) sulphate, xanthine, deoxyribose and xanthine oxidase were adjusted to be 360 μM, 36 μM, 70 μM, 700 μM and 0.7 unit/ml, respectively. If test compounds were not soluble in PBS-1 alone, aqueous sodium hydroxide solution or DMSO was added. The pH of the solution was adjusted to 7.4 to 7.8.
. The percent inhibition of the hydroxyl radical was calculated from the following equation (2) and the results are shown in Table 6. [formula] F1 : Intensity of fluorescence when a test compound was added. F2 : Intensity of fluorescence when a test compound was added but deoxyribose was not added.
F3 : Intensity of fluorescence when a test compound was not added.
F4 : Intensity of fluorescence when neither test compound nor deoxyribose was added.

[4] = tested on: lipid peroxidation in murine brain homogenate; test: Inhibitory effects on lipid peroxidation (murine brain homogenate); type: biochemical, murine (C57 black mouse); details: 30 μM test compound; no added iron; 37° C., 60 minutes; pH 7.2 to 7.8
Procedure: as §1
Test for Inhibitory Effects on Lipid Peroxidation
To 900 μl of a 5% solution of the murine brain homogenate in PBS-2 prepared in the same way as described in Test Example 3 was added 100 μl of a PBS-2 solution of each of the test compounds shown in Table 8 below. The final concentration of the test compounds was adjusted to be 30 μM. If test compounds were not soluble in PBS-2 alone, an aqueous solution of sodium hydroxide or DMSO was added. The pH of the solution was adjusted to 7.2 to 7.8.
The solution after heated at 37° C. for 60 minutes was added with 1.0 ml of an aqeuous solution of thiobarbituric acid/trichloroacetic acid/hydrochloric acid, and the mixture was heated in a boiling water bath for 15 minutes. After ice-cooling, the solution was extracted with 2.0 ml of 1-butanol to prepare a sample for determining the lipid peroxide in the same way as described in Test Example 1. […] [formula] A4 : Absorbance when a test compound was added. A5 : Absorbance when a test compound was not added.
A6 : Abosrbance when a test compound was not added and heating at 37° C. for […] was not carried out.

hydroxyl radical [5] = test: Inhibitory effects on hydroxyl radical formation (2) (iron (II)/hydrogen peroxide, DMPO, ESR); type: biochemical; details: 306 μM test compound; 306 μM iron (II) sulphate; 75 mM DMPO; 306 μM hydrogen peroxide; ESR within 40 seconds
Procedure: Test for Inhibitory Effects on Hydroxyl Radical Formation (2)
To 75 μl of a solution of each of the test compounds shown in Table 9 below in 0.1M phosphate buffer (hereinafter referred to as "PBS-3") were successively added 75 μl of an aqueous solution of iron (II) sulphate, 20 μl of an aqueous solution of 5,5-dimethyl-1-pyrroline-N-oxide "DMPO" (manufactured by Dojin Chemical) and 75 μl of an aqueous solution of hydrogen peroxide. […] If test compounds were not soluble in PBS-3 alone, an aqueous sodium hydroxide solution or N,N-dimethyl formamide was added.
This solution was subjected to determination for the hydroxy radical immediately (within 40 seconds), using an electron spin resonance (ESR) meter "JES-FR80S" (manufactured by Nippon Denshi).
[formula] E1 : Signal magnitude when a test compound was added. E2 : Signal magnitude when a test compound was not added.

Wavelength (nm) of maximum absorption (UV absorptive activities): 307 nm
Maximum molar extinction coefficient (UV absorptive activities; UVA and UVB regions): 10,000
% Inhibition of hydroxyl radical (hydroxyl radical [3]): 19%
Structure (SMILES): O=C(O)C(CO)N=Cc1c(O)ccc2ccccc12 (stereo not shown) [Synthesis Example 28]
% Inhibition of metal ion-induced lipid peroxidation [1]: 80%
% Inhibition of UV-induced lipid peroxidation [2]: 20%
% Inhibition of lipid peroxidation [4]: 70%
% Inhibition of hydroxy radicals (hydroxyl radical [5]): 56%
